Article PMC5753150 (Beilstein Journal of Organic Chemistry, 2017)
“Also recorded” adds a separate entry of the source. *1 amine or outer side, *2 acyl side, *3 side chain or, on linkers, in order; H or OH if unused. Where a SMILES comes first, the peptide text is derived from it. [ ]: non-standard residue; d: D form. Leu(5,5,5,5',5',5'-F6) = N[C@@H](CC(C(F)(F)F)C(F)(F)F)C(=O)O; X1 = C[C@@H](CC(F)(F)F)[C@H](N[*:1])C(=O)[*:2]; 2Abz = Nc1ccccc1C(=O)O

Tests used:
[1] = molecular target: T1, proteinase K (EC 3.4.21.64) (Parengyodontium album, UniProt P06873); experiment: Protease digestion assay with proteinase K (FL-RP-HPLC); assay type: in vitro ADME, tritirachium album; conditions: for Gain in stability upon fluorination compared to the non-fluorinated analogue, 120 min: after 120 min
T1 construct: purchased Sigma Aldrich; host or cells: Tritirachium album
Method: (§1) The FA peptide was used as a reference. […] All experiments were performed in triplicate.
(§2) The used linear gradients are
(§3) chromatograms where an insufficient baseline separation was observed,
(§4) (proteinase K)]. The obtained data were analyzed with EZChrom Elite software
(§5) Method Time [min] Water + 0.1% (v/v) TFA [%] ACN + 0.1% (v/v) TFA [%]

pepsin (EC 3.4.23.1) [2] = molecular target: pepsin (EC 3.4.23.1) (Sus scrofa, UniProt P00791); experiment: in vitro; conditions: for Percentage of substrate remaining after incubation for 24 h: pepsin (porcine stomach mucosa), 10 mM acetate buffer pH 4.0 with DMSO, 30 °C, FL-RP-HPLC peak integration (Abz, λex 320/λem 420 nm), average of three independent measurements
Method: (§6) The course of proteolytic digestion was characterized by an analytical HPLC-assay with fluorescence detection. For quantification of substrate degradation, integration of the corresponding HPLC peak was conducted. Cleavage products were identified by ESI–ToF mass spectrometry (see Supporting Information File 1, Tables S4–S7).
(§7) All peptides employed in the degradation studies were used as the TFA salts obtained after lyophilization. Stock solutions of α-chymotrypsin (from bovine pancreas, EC 3.4.21.1, ≥40.0 units/mg of protein, Sigma Aldrich, St. Louis, MO, USA), and pepsin (from porcine stomach mucosa, EC 3.4.23.1, ≥250 units/mg of protein, Sigma Aldrich, St. Louis, MO, USA) were prepared at concentrations of 1 mg/mL in phosphate buffer (10 mM, pH 7.4), or in acetate buffer (10 mM, pH 4.0), respectively. For proteinase K (from tritirachium album, EC 3.4.21.64, ≥30 units/mg of protein, Sigma Aldrich, St. Louis, MO, USA) and elastase (from porcine pancreas, EC 3.4.21.36, 6.2 units/mg of protein, Sigma Aldrich, St. Louis, MO, USA) stock solutions were prepared also at concentrations of 1 mg/mL in tris/HCl (50 mM) + CaCl2 (10 mM) buffer (pH 7.5), or in tris/HCl buffer (100 mM, pH 8.4), respectively. Peptides (0.002 mmol) were prepared as stocks in DMSO (100 µL) and incubated with the respective enzyme at 30 °C (for α-chymotrypsin and pepsin) or 37 °C (for proteinase K and elastase) with shaking at 300 rpm in a thermomixer over a period of 24 h. The reaction mixture consisted of DMSO (15 µL), corresponding buffer (25 µL), peptide solution (5 µL) and the corresponding enzyme solution (5 µL). […] Aliquots of 5 µL were taken at fixed time points (0, 15, 30, 60, 90, 120 min as well as 3 h and 24 h) and either quenched with ACN containing 0.1% (v/v) TFA (95 µL), in the case of α-chymotrypsin, proteinase K and elastase, or 2% aqueous ammonia (95 µL), in the case of pepsin. All samples were subjected to analytical HPLC on a LaChrom-ELITE-HPLC-System equipped with a fluorescence detector (VWR International Hitachi, Darmstadt, Germany). A monolithic reversed-phase C8 Chromolith® Performance HPLC column (100 × 4.6 mm, Merck KGaA, Darmstadt, Germany) was used to resolve and quantify the products of digestion. The used system and gradients are described in detail in Supporting Information File 1. Detection based on the Abz label was carried out using a fluorescence detector with λex = 320 nm and λem = 420 nm. In all cases, the peaks corresponding to the starting materials (full-length peptides) or the N-terminal fragments (products) were integrated and used to determine the velocity of the reaction (see Supporting Information File 1). […] Each fragment cleaved from the full-length peptide was identified by ESI–ToF mass analysis on an Agilent 6220 ESI–ToF–MS spectrometer (Agilent Technologies, Santa Clara, CA, USA, see Supporting Information File 1). All experiments were performed in triplicate.
(§8) 2130) with solvent degasser, an autosampler (L-2200) with a 100 µL sample loop, a diode array flow detector (L-2455), a fluorescence detector (L-2485) and a high pressure gradient mixer. As eluents water and ACN, both containing 0.1% (v/v) TFA were used, and a flow rate of 3 mL/min was applied. The used linear gradients are […]
(§9) For the non-fluorinated peptides method A was used to follow the digestion process, and for the fluorinated peptides method B was applied. For […]
(§10) The obtained data were analyzed with EZChrom Elite software
(§11) (version 3.3.2, Agilent Technologies, Santa Clara, CA, USA).

elastase (EC 3.4.21.36) [3] = molecular target: elastase (EC 3.4.21.36) (Sus scrofa, UniProt P00772); conditions: elastase (porcine pancreas), 100 mM Tris/HCl buffer pH 8.4 with DMSO, 37 °C, mean of three independent measurements; for Degradation state after incubation for 120 min: FL-RP-HPLC
Method: as §6, §7, §8, §9, §10, §11

[4] = molecular target: T2, α-chymotrypsin (EC 3.4.21.1) (Bos taurus, UniProt P00766); experiment: Protease digestion assay with α-chymotrypsin (FL-RP-HPLC); assay type: in vitro ADME, bovine; conditions: for Proteolytic stability compared to control peptide FA after 120 min / Proteolytic stability compared to control peptide FA after 24 h / Gain in proteolytic stability upon fluorination compared to the non-fluorinated (Leu or Ile) analogue: α-chymotrypsin, 10 mM phosphate buffer pH 7.4, 30 °C, FL-RP-HPLC; for Proteolytic stability compared to control peptide FA after 120 min / Proteolytic stability compared to control peptide FA after 24 h: three independent measurements; for Percentage of substrate remaining after incubation for 24 h: α-chymotrypsin (bovine pancreas), 10 mM phosphate buffer pH 7.4 with DMSO, 30 °C, FL-RP-HPLC peak integration (Abz, λex 320/λem 420 nm), average of three independent measurements; for Gain in proteolytic stability upon fluorination compared to the non-fluorinated (Leu or Ile) analogue: after 24 h
T2 construct: purchased Sigma Aldrich; host or cells: bovine pancreas
Method: as §1, §2, §3, §4, §5

in vitro = conditions: pig, pepsin from porcine stomach mucosa, pH 4
Method: as §6, §7, §8, §9, §10, §11

[5] = tested on: proteinase K (EC 3.4.21.64); experiment: proteinase K in 50 mM Tris/HCl buffer, containing 10 mM CaCl2 pH 7.5; conditions: tritirachium album, 37 °C, up to 24 h
elastase (EC 3.4.21.36) [6] = experiment: elastase in 100 mM Tris/HCl buffer, pH 8.4; conditions: porcine pancreas, 37 °C, up to 24 h
[7] = tested on: elastase (from porcine pancreas, EC 3.4.21.36); experiment: elastase in 100 mM Tris/HCl buffer, pH 8.4; conditions: 37 °C, up to 24 h
[8] = tested on: α-chymotrypsin (EC 3.4.21.1); experiment: α-chymotrypsin in 10 mM phosphate buffer, pH 7.4; conditions: bovine pancreas, 30 °C, up to 24 h
pepsin (EC 3.4.23.1) [9] = experiment: pepsin in 10 mM acetate buffer, pH 4.0; conditions: porcine stomach mucosa, 30 °C, up to 24 h
dipeptidyl peptidase = conditions: wild-type peptide; cited from earlier work
Text: Several laboratories have focused on introducing highly fluorinated analogues of hydrophobic amino acids and have studied the effects on stability of the resulting proteins towards thermal and chemical denaturation. These studies prompted further investigation into the extent to which fluorinated amino acids stabilize peptides and proteins against proteolytic degradation in particular. Meng and Kumar reported that the incorporation of 5,5,5,5’,5’,5’-hexafluoroleucine (HfLeu) into the antimicrobial peptides magainin 2 amide and buforin enhanced their resistance towards proteolyt ...

[10] = proteinase K, 50 mM Tris/HCl + 10 mM CaCl2 pH 7.5, 37 °C, 120 min, FL-RP-HPLC
[11] = pepsin, 10 mM acetate buffer pH 4.0, 30 °C, 120 min, FL-RP-HPLC
[12] = proteinase K, 50 mM Tris/HCl + 10 mM CaCl2 pH 7.5, 37 °C

T1 sequence (P06873 106-384): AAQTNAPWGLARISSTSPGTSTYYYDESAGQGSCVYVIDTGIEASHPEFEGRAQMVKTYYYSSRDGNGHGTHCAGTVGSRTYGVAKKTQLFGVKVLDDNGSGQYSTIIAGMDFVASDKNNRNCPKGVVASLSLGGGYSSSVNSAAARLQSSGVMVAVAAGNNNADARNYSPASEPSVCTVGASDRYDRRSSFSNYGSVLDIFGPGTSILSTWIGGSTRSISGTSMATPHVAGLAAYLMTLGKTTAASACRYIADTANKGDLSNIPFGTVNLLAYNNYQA
Sequence of pepsin (EC 3.4.23.1) (Sus scrofa, UniProt P00791) (P00791 60-385): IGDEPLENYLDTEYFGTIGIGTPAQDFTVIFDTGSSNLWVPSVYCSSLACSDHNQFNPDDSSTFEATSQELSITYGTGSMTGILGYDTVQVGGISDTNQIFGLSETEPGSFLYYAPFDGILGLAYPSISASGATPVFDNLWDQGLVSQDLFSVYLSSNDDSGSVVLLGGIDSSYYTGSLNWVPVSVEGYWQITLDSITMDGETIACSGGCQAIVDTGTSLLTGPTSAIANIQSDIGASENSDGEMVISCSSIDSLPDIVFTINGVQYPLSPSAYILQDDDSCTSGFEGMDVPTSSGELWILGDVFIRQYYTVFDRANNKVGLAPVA
Sequence of elastase (EC 3.4.21.36) (Sus scrofa, UniProt P00772) (P00772 27-266): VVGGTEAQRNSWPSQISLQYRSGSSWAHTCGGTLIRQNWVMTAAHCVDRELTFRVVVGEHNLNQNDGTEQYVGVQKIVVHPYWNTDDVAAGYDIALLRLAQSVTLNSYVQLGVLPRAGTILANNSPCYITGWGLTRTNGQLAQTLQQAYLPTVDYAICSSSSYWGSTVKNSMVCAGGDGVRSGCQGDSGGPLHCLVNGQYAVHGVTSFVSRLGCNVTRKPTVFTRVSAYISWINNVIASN

Compound: CC[C@H](C)[C@H](NC(=O)[C@H](C)NC(=O)[C@H](Cc1ccccc1)NC(=O)[C@H](C)NC(=O)[C@H](C)NC(=O)[C@H](CCCCN)NC(=O)c1ccccc1N)C(=O)N[C@@H](C)C(=O)N[C@@H](C)C(=O)N[C@@H](CCCCN)C(=O)O [P2’-IleFA] (H-[2Abz]KAAFAIAAK-OH)
- Proteolytic stability compared to control peptide FA after 120 min [1, 10]: as stable as FA
- Percentage of substrate remaining after incubation for 24 h (pepsin (EC 3.4.23.1) [2]): completely digested
- Proteolytic stability compared to control peptide FA after 120 min (pepsin (EC 3.4.23.1) [2]; [11]): degraded faster than the control FA
- Degradation state after incubation for 120 min (elastase (EC 3.4.21.36) [3]): somewhat digested
- Percentage of substrate remaining after incubation for 24 h (elastase (EC 3.4.21.36) [3]; 24 h, FL-RP-HPLC peak integration (Abz fluorescence)): almost complete proteolysis
- Proteolytic stability compared to control peptide FA after 120 min [4]: more stable against digestion
- Proteolytic stability compared to control peptide FA after 24 h [4]: accelerated proteolysis compared to FA

Compound: Abz-KAAFATfIleAAK [P2’-TfIleFA]
- Gain in stability upon fluorination compared to the non-fluorinated analogue, 120 min [1, 12]: around 12%
- Percentage of substrate remaining after incubation for 24 h (pepsin (EC 3.4.23.1) [2]): completely digested
- Proteolytic stability compared to control peptide FA after 120 min (pepsin (EC 3.4.23.1) [2]; [11]): degraded faster than the control FA
- Degradation state after incubation for 120 min (elastase (EC 3.4.21.36) [3]): somewhat digested

Compound: C[C@H](NC(=O)[C@H](C)NC(=O)[C@H](CC(C(F)(F)F)C(F)(F)F)NC(=O)[C@H](C)NC(=O)[C@H](Cc1ccccc1)NC(=O)[C@H](C)NC(=O)[C@H](C)NC(=O)[C@H](CCCCN)NC(=O)c1ccccc1N)C(=O)N[C@@H](CCCCN)C(=O)O [P2’-HfLeuFA] (H-[2Abz]KAAFA[Leu(5,5,5,5',5',5'-F6)]AAK-OH)
- Degradation state after incubation for 120 min [1, 10]: almost completely degraded
- remaining at 24 h, 2 mM (in vitro): ~76%
- Peptide digested (hydrolysis) after 120 min (pepsin (EC 3.4.23.1) [2]; pepsin, 10 mM acetate buffer pH 4.0, 30 °C, 120 min, FL-RP-HPLC, enzyme concentration optimized to about 40% hydrolysis of FA): up to 5%
- Percentage of substrate remaining after incubation for 24 h [4]: up to 44%
- Proteolytic stability compared to control peptide FA after 120 min [4]: more stable against digestion

Compound: C[C@H](NC(=O)[C@H](C)NC(=O)[C@H](C)NC(=O)[C@H](Cc1ccccc1)NC(=O)[C@H](CC(C(F)(F)F)C(F)(F)F)NC(=O)[C@H](C)NC(=O)[C@H](CCCCN)NC(=O)c1ccccc1N)C(=O)N[C@@H](C)C(=O)N[C@@H](CCCCN)C(=O)O [P2-HfLeuFA] (H-[2Abz]KA[Leu(5,5,5,5',5',5'-F6)]FAAAAK-OH)
- Percentage of substrate remaining after incubation for 24 h [4]: not digested at all
- Gain in proteolytic stability upon fluorination compared to the non-fluorinated (Leu or Ile) analogue [4]: ~100%
- gain in stability vs non-fluorinated analogue after 24 h: 19%

Compound: Abz-KAAFALeuAAK
- cleaved bond [5]: A-F and Leu-A
- cleaved bond (elastase (EC 3.4.21.36) [6]): A-A and A-Leu and A-K
- not cleaved [7]: no fragments with Phe in P1 observed
- cleaved bond [8]: F-A, major
- cleaved bond (pepsin (EC 3.4.23.1) [9]): F-A

Compound: CC(C)C[C@H](NC(=O)[C@H](C)NC(=O)[C@H](Cc1ccccc1)NC(=O)[C@H](C)NC(=O)[C@H](C)NC(=O)[C@H](CCCCN)NC(=O)c1ccccc1N)C(=O)N[C@@H](C)C(=O)N[C@@H](C)C(=O)N[C@@H](CCCCN)C(=O)O [P2’-LeuFA] (H-[2Abz]KAAFALAAK-OH)
- Proteolytic stability compared to control peptide FA after 120 min (pepsin (EC 3.4.23.1) [2]; [11]): degraded faster than the control FA
- Degradation state after incubation for 120 min (elastase (EC 3.4.21.36) [3]): somewhat digested
- Proteolytic stability compared to control peptide FA after 120 min [4]: more stable against digestion
- Proteolytic stability compared to control peptide FA after 24 h [4]: accelerated proteolysis compared to FA

Compound: C[C@H](NC(=O)[C@H](C)NC(=O)[C@H](C)NC(=O)[C@H](Cc1ccccc1)NC(=O)[C@@H](NC(=O)[C@H](C)NC(=O)[C@H](CCCCN)NC(=O)c1ccccc1N)[C@@H](C)CC(F)(F)F)C(=O)N[C@@H](C)C(=O)N[C@@H](CCCCN)C(=O)O [P2-TfIleFA] (H-[2Abz]KA[X1]FAAAAK-OH)
- Percentage of substrate remaining after incubation for 24 h ([1]; proteinase K (tritirachium album), 50 mM Tris/HCl buffer containing 10 mM CaCl2 pH 7.5 with DMSO, 37 °C, 24 h, FL-RP-HPLC peak integration (Abz fluorescence), mean of three independent measurements): still left; also recorded: remarkably stable
- Gain in stability upon fluorination compared to the non-fluorinated analogue, 120 min [1, 12]: 60%
- remaining at 24 h, 2 mM (in vitro): 100%
- Gain in proteolytic stability upon fluorination compared to the non-fluorinated analogue, 24 h (pepsin (EC 3.4.23.1) [2]; pepsin, 10 mM acetate buffer pH 4.0, 30 °C, after 24 h): 100%
- Percentage of substrate remaining after incubation for 24 h [4]: not digested at all
- Gain in proteolytic stability upon fluorination compared to the non-fluorinated (Leu or Ile) analogue [4]: 50%
- gain in stability vs non-fluorinated analogue after 24 h: 35%

Compound: glucagon-like-peptide-1 [GLP-1]
- Time of rapid digestion by the serine protease dipeptidyl peptidase (dipeptidyl peptidase): ≈ 2 min
